From PMC9822769, “The Strange Case: The Unsymmetric Cisplatin-Based Pt(IV) Prodrug [Pt(CH3COO)Cl2(NH3)2(OH)] Exhibits Higher Cytotoxic Activity with respect to Its Symmetric Congeners due to Carrier-Mediated Cellular Uptake” (Bioinorganic Chemistry and Applications, 2022)

Assays:
Format in all cases: cell-based, human
A2780 = assay: Resazurin reduction cell viability assay, A2780; settings: 72 h of treatment; mean ± sd
Method: (§1) The compounds under investigation were tested on a panel of commercial human cancer cell lines: ovarian endometrioid adenocarcinoma A2780 (ICLC HTL98008), its cisplatin-resistant variant A2780cisR (ECACC 93112517), colon carcinoma HCT 116 (ECACC 91091005), breast invasive ductal carcinoma MCF7 (ECACC 86012803), embryonal carcinoma NTERA-2 clone D1 (also known as NT2/D1, ICLC HTL97025), and lung adenocarcinoma A549 (ICLC HTL03001). Furthermore, a cell line derived from the pleural effusion of a patient with untreated malignant pleural mesothelioma (MPM) was added to the panel, namely, MM98 (sarcomatoid phenotype). Commercial cells were purchased from the European Collection of Authenticated Cell Cultures (ECACC, UK) or the Interlab Cell Line Collection (ICLC, Genoa, Italy), while the MM98 cell line was obtained from the Pathology Unit of the National Hospital of Alessandria (Italy).
(§2) The following media were used to grow the cells: RPMI 1640 (for A2780, A2780cisR, NT2/D1, and A549 cells), DMEM (for MCF7 cells), DMEM supplemented with nonessential amino acids (for MM98 cells), and McCoy's 5A (for HCT 116 cells). All media contained L-glutamine (2 mM) and were added with penicillin (100 IU·mL^−1), streptomycin (100 mg·L^−1), and 10% heat inactivated FBS. To maintain resistance in A2780cisR cells, cisplatin (1 μM) was added to the medium every two passages.
(§3) Continuous treatments (CT) were carried out at 37°C in a humidified chamber with 5% CO2. Cisplatin was dissolved in a 0.9% w/v NaCl aqueous solution and brought to pH = 3 with HCl (final stock concentration 1 mM). The Pt(IV) Complexes 1–3 were dissolved in milliQ water (final stock concentration 5 mM) and stored at −20°C. The stock concentration was confirmed with inductively coupled plasma-mass spectrometry (ICP-MS) measurements. The mother solutions were diluted in a complete medium to the required concentration.
(§4) To assess the growth inhibition of the compounds under investigation, a cell viability test (i.e., the resazurin reduction assay) was used. […] At the end of the treatment (72 h), viability was evaluated with 100 μg·mL^−1 resazurin (Acros Chemicals, France) in a fresh medium for 1 h at 37°C, and the amount of the reduced product, resorufin, was measured by fluorescence (excitation λ = 535 nm, emission λ = 595 nm) with a Tecan Infinite F200Pro plate reader (Tecan, Austria). In each experiment, cells were challenged with drug candidates at different concentrations, and the final data were calculated from at least three replicates of the same experiment performed in triplicate. The fluorescence of 8 wells containing a medium without cells was used as a blank. Fluorescence data were normalized to 100% cell viability for nontreated cells. […]

A2780cisR = assay: Resazurin reduction cell viability assay, A2780cisR; settings: for IC50: 72 h of treatment, cisplatin-resistant, mean ± sd; for resistance factor, RF = IC50 A2780cisR/IC50 A2780: 72 h, rounded to the nearest unity
Method: as §1, §2, §3
To assess the growth inhibition of the compounds under investigation, a cell viability test (i.e., the resazurin reduction assay) was used. In brief, 2–5 × 10^3 cells per well (depending on the cell line) were seeded in black sterile tissue culture-treated 96-well plates. At the end of the treatment (72 h), viability was evaluated with 100 μg·mL^−1 resazurin (Acros Chemicals, France) in a fresh medium for 1 h at 37°C, and the amount of the reduced product, resorufin, was measured by fluorescence (excitation λ = 535 nm, emission λ = 595 nm) with a Tecan Infinite F200Pro plate reader (Tecan, Austria). In each experiment, cells were challenged with drug candidates at different concentrations, and the final data were calculated from at least three replicates of the same experiment performed in triplicate. The fluorescence of 8 wells containing a medium without cells was used as a blank. Fluorescence data were normalized to 100% cell viability for nontreated cells. The half-inhibiting concentration (IC50), defined as the concentration of the drug that reduces cell viability by 50%, was obtained from the dose-response sigmoid using Origin Pro (version 8, Microcal Software Inc., Northampton, MA, USA).

A549 = assay: Resazurin reduction cell viability assay, A549; settings: 72 h of treatment; mean ± sd
Method: as §1, §2, §3, §4

MM98 = assay: Resazurin reduction cell viability assay, MM98; settings: 72 h of treatment; mean ± sd
Method: as §1, §2, §3, §4

A2780 cells = assay: Cellular Pt accumulation in A2780 cells in the presence of uptake inhibitors; settings: A2780, 1 h, 10 μM; for effect of NaN3/2DG pretreatment on cell accumulation (AR): NaN3 and 2DG both 25 mM
Method: A2780 and A2780cisR cells were seeded in 10 mm Petri dishes and challenged with complexes under investigation (10 μM) in a complete medium for 4 h. At the end of the exposure, cells were washed three times with PBS, detached from Petri dishes using 0.05% trypsin 1x + 2% EDTA (HyClone, Thermo Fisher), and harvested in a completely fresh medium. An automatic cell counting device (Countess®, Life Technologies) was used to measure the number and mean diameter of each cell necessary to calculate the mean cellular (spherical) volume.
For the analysis of Pt accumulation, cells were transferred to a borosilicate glass tube and centrifuged at 1100 rpm for 5 min at room temperature. The supernatant was carefully removed by aspiration, while approximately, 200 μL of the supernatant was left to limit cell loss. Cellular pellets were stored at −80°C until mineralization.
The determination of the platinum content was performed by ICP-MS (Thermo Optek X Series 2). Mineralization was carried out by adding 70% w/w HNO3 to each sample (after defrosting), followed by incubation for 1 h at 60°C in an ultrasonic bath. Before the ICP-MS measurement, HNO3 was diluted to a final concentration of 1%. The instrument settings were optimized to produce the highest platinum sensitivity, and the most abundant isotopes of Pt and In (used as an internal standard) were quantified at m/z 195 and 115, respectively.
The quantity of Pt found in cells and normalized on cell number (cellular Pt accumulation) was expressed as ng of Pt per 10^6 cells. The mean cellular volume, calculated from the actual mean cell diameter measured for each sample (about 12 μm), was used to obtain the volume of 10^6 cells and, finally, the intracellular Pt concentration. At treatment time zero, 100 μL of the medium was taken from each sample to verify the extracellular Pt concentration. The ratio between intracellular and the actual extracellular concentrations is defined as the accumulation ratio, AR [70]. The Pt content in the control experiment, which characterizes any possible Pt contamination during the overall process, was statistically insignificant with respect to the cellular Pt accumulated during treatment, even in the case of A2780cisR.
Experiments with the inhibitors were carried out at 37°C as follows: (i) NaN3 + 2-deoxy-D-glucose (2DG): preincubation for 30 min in PBS with 25 mM NaN3 and 25 mM 2DG, followed by a 10 μM CT with the Pt compounds in Earle's Balanced Salt Solution (EBSS) for 1 h; (ii) cimetidine (CMT): coincubation with 1.5 mM CMT and 10 μM Pt compounds in EBSS for 1 h; (iii) 1-methyl-4-phenylpyridin-1-ium (MPP^+): coincubation with 2.0 mM MPP^+ and 10 μM Pt compounds in EBSS for 1 h; (iv) cytochalasin D (CTD): preincubation for 30 min in EBSS with 10 μM CTD, followed by a 10 μM CT with the Pt compounds in EBSS for 1 h; (v) O-benzylserine (BS): coincubation with 1.0 mM BS and 10 μM Pt compounds in EBSS for 4 h; (vi) ouabain (OUA): preincubation for 1 h in EBSS with 1 mM OUA, followed by a 10 μM CT with the Pt compounds in EBSS for 4 h; (vii) tetraethylammonium chloride (TEA): […] in EBSS for 4 h. In the experiments at low temperature, A2780 cells were preincubated for 2 h at 4°C, followed by CT with each Pt compound (10 μM) for 4 h. In all cases, at the end of the CT, the cells were manipulated as described in the previous paragraphs.

Compound	IC50 (A2780) [µM]	IC50 (A2780cisR) [µM]	IC50 (A549) [µM]	IC50 (MM98) [µM]	effect of OCT inhibitors (TEA, MPP+, CMT) on AR (A2780 cells)	effect of NaN3/2DG pretreatment on cell accumulation (AR) (A2780 cells)	resistance factor, RF = IC50 A2780cisR/IC50 A2780 (A2780cisR)	effect of O-benzylserine (BS) on cellular accumulation (A2780 cells; BS cotreatment 1 mM)	effect of cimetidine (CMT) on cell accumulation (A2780 cells; CMT cotreatment 1.5 mM)	effect of cytochalasin D (CTD) on Pt accumulation (A2780 cells; CTD pretreatment 10 μM)	effect of MPP+ on cell accumulation (A2780 cells; MPP+ cotreatment 2 mM)	effect of ouabain (OUA) on cellular accumulation (A2780 cells; OUA pretreatment 1 mM)	effect of tetraethylammonium (TEA) on uptake (A2780 cells; TEA pretreatment 20 mg·mL^−1)
CC(=O)[O][Pt]([NH2])([NH2])([Cl])([Cl])[O]C(C)=O [Complex 3, (OC-6-33)-diamminedichloridodiacetatoplatinum(IV)]	12.1 ± 5.2	> 100	78 ± 17.7	> 100	not significantly affected	without appreciably affecting	–	–	–	–	–	–	–
CC(=O)[O][Pt]([OH])([Cl])[Cl].N.N [Complex 2, (OC-6-44)-acetatodiamminedichloridohydroxidoplatinum(IV)]	0.16 ± 0.05	1.02 ± 0.68	3.11 ± 0.74	3.67 ± 1.32	–	statistically reduced	6	did not cause a significant effect	inhibited	did not cause any decrease	inhibited	did not cause a significant effect	evident (albeit statistically not significant) decrease
N.N.[OH][Pt]([OH])([Cl])[Cl] [Complex 1, (OC-6-33)-diamminedichloridodihydroxidoplatinum(IV)]	3.71 ± 1.93	52.1 ± 3.48	48.2 ± 27.7	> 100	not significantly affected	without appreciably affecting	14	–	–	–	–	–	–
N.N.[Cl][Pt][Cl] [Cisplatin, (SP-4-2)-diamminedichloridoplatinum(II)]	0.48 ± 0.12	6.22 ± 1.02	3.8 ± 0.7	3.2 ± 1.02	–	–	13	–	–	–	–	–	–
